Here are results for two molecules from patent US20020058694A1, “Ureido and thioureido derivatives of 4-amino-2(5H)-furanones and 4-amino-2(5H)-thiophenones as antitumor agents” (Roche Diagnostics GmbH, priority 1997, published 2002).

Format in all cases: cell-based
Common to all, as to details: 144 hours of incubation, concentration which causes the death of 50% of cell population

One test has as its system HT 29. The test can be described thus: MTT cytotoxicity assay, HT 29 human colon tumor cell line. As for the experimental part: (§1) The compounds of the invention were tested against three human colon tumor cell lines (HT 29, HCT 116 and LoVo). After 144 hours of incubation of the cells with the compound to be tested, the cytotoxicity is evaluated using the MTT assay (Mosman, T. “Rapid Colorimetric Assay for Cellular Growth and Survival: Application to Proliferation and Cytotoxicity Assay”; J. Immunol. Methods, (1983), 65, 66; Green, L. M., “Rapid Colorimetric Assay for Cell Viability; Application to the Quantitation of Cytotoxic and Growth Inhibitory Lymphokines”, J. Immunol. Methods, (1984), 70, 257-268). The results are expressed as IC50 ([…]), that it the concentration of the tested compound which causes the death of 50% of cell population.
(In general: Formazan colour is commonly taken as a measure of viable cells.)

The test system of the next test is LoVo. The test can be described thus: MTT cytotoxicity assay, LoVo human colon tumor cell line. As for the experimental part:
as §1

Another test concerns HCT 116. The test can be described thus: MTT cytotoxicity assay, HCT 116 human colon tumor cell line. As for the experimental part: as §1

In brackets after ≈: the same amount, converted by molar mass.

`CCc1ccc(NC(=O)NC2=CC(=O)OC2)cc1Cl` [Example 3, 4-[N-(4-ethyl-3-chlorophenyl)aminocarbonylamino)-2(5H)-furanone]: the values for the IC50 in the test on HT 29, with LoVo and in the test with HCT 116 were 0.003 µg/mL (≈ 0.0107 µM), 0.034 µg/mL (≈ 0.121 µM) and less than 0.01 µg/mL, respectively.

Consider `O=C(NC1=CC(=O)OC1)Nc1ccc(Cl)cc1` [Example 2, 4-[N-(4-chlorophenyl)aminocarbonylamino]-2(5H)-furanone], for which the IC50 was 0.032 µg/mL (≈ 0.127 µM) in the test with HT 29, 0.01 µg/mL (≈ 0.0396 µM) in the test on LoVo and 0.034 µg/mL (≈ 0.135 µM) in the test on HCT 116.

The term IC50 denotes the concentration that gives 50% inhibition. High values mean a need for much substance, low ones inhibition by little substance.
